We go through three compounds from US10330683B2, “Mutant smoothened and methods of using the same” (Genentech, Inc., priority 2015, dated 2019).

“Also recorded” adds a separate entry of the source.

For assay [1], the system named is PPT CGNPs infected with SMO-WT and Cre. The experiment in a line: methyl-[3H]-thymidine incorporation (proliferation) of virally transduced PPT CGNPs after removal of SHH. In kind it is cell-based, mice. The text has this:
(§1) It has previously been noted that Hh-driven tumor cells rapidly lose their Hh pathway dependence during culturing (Sasai et al., 2006). However, CGNPs proliferate in vivo in a Hh dependent manner and maintain their Hh pathway dependence in culture for a finite period (Wechsler-Reya and Scott, 1999). CGNPs isolated from Ptch1loxp/loxp Tp53loxp/loxp Rosa26LSL-tdTomato (PPT) pups were infected with lentiviral constructs expressing a SMO variant together with an enhanced green fluorescent protein (eGFP)-Cre fusion protein (FIG. 12C). The Cre recombinase induces loss of Ptch1 and thus ensures that only transduced CGNPs can proliferate in the absence of exogenous Sonic hedgehog ligand (SHH; FIG. 11D). […] Proliferation by methyl-[3H]-thymidine incorporation was monitored, while Cre-dependent tandem dimer (td) Tomato expression enabled visualization and quantification of infected cells. This system also enabled better model patient genetics because most of the SMO mutations were identified in tumors that harbored TP53 mutations and were driven by loss of PTCH1. […] It was confirmed that CGNPs were infected at similar frequencies by fluorescence-activated cell sorting (FACS) analysis for Cre-dependent tdTomato reporter expression, and that the SMO variants were expressed at equivalent levels by quantitative reverse transcription (qRT) PCR.
(§2) Cerebella from post-natal day 5-7 Ptch1^loxp/loxp Rosa26^LSLtdTomato Tp53^loxp/loxp mice were dissociated in 0.05% Trypsin for 10 min at 37° C. Cells were collected by centrifugation at 514×g for 10 min at 4° C., resuspended in CGNP media (Neurobasal medium (Life Technologies) containing 1×B27 (without vitamin A; Life Technologies), 0.45% glucose (Sigma Aldrich), 25 mM KCl, 0.4% bovine serum albumin (Sigma Aldrich), 2 mM glutamine, 100 U/ml Penicillin (Life Technologies), 100 μg/ml Streptomycin (Life Technologies), 200 ng/ml octylated recombinant SHH) and filtered through a 0.45 μm filter (Falcon). Cells were plated in poly-D-lysine coated 6-well plates (Corning) at 5×10E5 cells/well and infected with lentivirus at a multiplicity of infection (MOI) of 1. After 24 hr, cells were harvested by trypsinization, collected in CGNP media and replated for downstream applications.
(§3) To examine the effects of HPIs on proliferation, virally transduced CGNPs were plated in poly-D-lysine-coated 96-well plates (Corning) at 25,000 cells/well in CGNP media without SHH. […] After 24 hr, cells were pulsed with 1 μCi/ml methyl-[^3H]-thymidine (Amersham/GE Healthcare) and cultured for an additional 16-24 hr. Cells were harvested onto 96-well filter plates (Perkin Elmer) using a Filtermate Cell Harvester (Perkin Elmer), and incorporated radioactivity was quantified by liquid scintillation spectrophotometry on a TopCount NXT (PerkinElmer).
(Dividing cells build labelled thymidine or BrdU into new DNA.)

Assay [2] has as its system PPT CGNPs infected with SMO DBP mutations. The assay is described as above. It is filed as cell-based, mice. To be noted: all DBP mutations; high levels of vismodegib (>1 μM); FIG. 12D.
Description: as §1, §2, §3

The subject of assay [3] is PPT CGNPs infected with SMO-C469Y. Described as above. In kind it is cell-based, mice. As to conditions: 5 μM vismodegib.
Description: as §1, §2, §3

The test system of assay [4] is SMO-E518K and E518A. As to conditions: cited from earlier work.
Assay [5] has as its system SMOW535L expressing CGNPs. The assay can be described thus: methyl-[3H]-thymidine incorporation (proliferation) of virally transduced PPT CGNPs after removal of SHH. As to conditions: high concentrations of vismodegib, FIGS. 14D and 15E. In kind it is cell-based, mice.
Description: (§4) It has previously been noted that Hh-driven tumor cells rapidly lose their Hh pathway dependence during culturing (Sasai et al., 2006). However, CGNPs proliferate in vivo in a Hh dependent manner and maintain their Hh pathway dependence in culture for a finite period (Wechsler-Reya and Scott, 1999). CGNPs isolated from Ptch1loxp/loxp Tp53loxp/loxp Rosa26LSL-tdTomato (PPT) pups were infected with lentiviral constructs expressing a SMO variant together with an enhanced green fluorescent protein (eGFP)-Cre fusion protein (FIG. 12C). The Cre recombinase induces loss of Ptch1 and thus ensures that only transduced CGNPs can proliferate in the absence of exogenous Sonic hedgehog ligand (SHH; FIG. 11D). […] Proliferation by methyl-[3H]-thymidine incorporation was monitored, while Cre-dependent tandem dimer (td) Tomato expression enabled visualization and quantification of infected cells.
as §2, with “After 24 hr, cells were harvested by trypsinization, collected in CGNP media and replated for downstream applications.” left out
(§5) To examine the effects of HPIs on proliferation, virally transduced CGNPs were plated in poly-D-lysine-coated 96-well plates (Corning) at 25,000 cells/well in CGNP media without SHH. […] Cells were harvested onto 96-well filter plates (Perkin Elmer) using a Filtermate Cell Harvester (Perkin Elmer), and incorporated radioactivity was quantified by liquid scintillation spectrophotometry on a TopCount NXT (PerkinElmer).

In assay [6] the test system is SMO-T241M expressing CGNPs. The description is as above. In kind it is cell-based, mice. To be noted: high concentrations of vismodegib, FIGS. 14D and 15E.
Description: as §4
as §2, with “After 24 hr, cells were harvested by trypsinization, collected in CGNP media and replated for downstream applications.” left out
as §5

The subject of assay [7] is SMO-A459V expressing CGNPs. The assay is described as above. In kind it is cell-based, mice. As to conditions: high concentrations of vismodegib, FIGS. 14D and 15E.
Description: as §4
as §2, with “After 24 hr, cells were harvested by trypsinization, collected in CGNP media and replated for downstream applications.” left out
as §5

For assay [8], the target named is T1, SMO-N219D (Homo sapiens, UniProt Q99835, N219D).
T1 construct: expressed in transfected cells; host or cells: C3H10T½ cells (mouse)
T1 sequence (Q99835 28-787 N219D): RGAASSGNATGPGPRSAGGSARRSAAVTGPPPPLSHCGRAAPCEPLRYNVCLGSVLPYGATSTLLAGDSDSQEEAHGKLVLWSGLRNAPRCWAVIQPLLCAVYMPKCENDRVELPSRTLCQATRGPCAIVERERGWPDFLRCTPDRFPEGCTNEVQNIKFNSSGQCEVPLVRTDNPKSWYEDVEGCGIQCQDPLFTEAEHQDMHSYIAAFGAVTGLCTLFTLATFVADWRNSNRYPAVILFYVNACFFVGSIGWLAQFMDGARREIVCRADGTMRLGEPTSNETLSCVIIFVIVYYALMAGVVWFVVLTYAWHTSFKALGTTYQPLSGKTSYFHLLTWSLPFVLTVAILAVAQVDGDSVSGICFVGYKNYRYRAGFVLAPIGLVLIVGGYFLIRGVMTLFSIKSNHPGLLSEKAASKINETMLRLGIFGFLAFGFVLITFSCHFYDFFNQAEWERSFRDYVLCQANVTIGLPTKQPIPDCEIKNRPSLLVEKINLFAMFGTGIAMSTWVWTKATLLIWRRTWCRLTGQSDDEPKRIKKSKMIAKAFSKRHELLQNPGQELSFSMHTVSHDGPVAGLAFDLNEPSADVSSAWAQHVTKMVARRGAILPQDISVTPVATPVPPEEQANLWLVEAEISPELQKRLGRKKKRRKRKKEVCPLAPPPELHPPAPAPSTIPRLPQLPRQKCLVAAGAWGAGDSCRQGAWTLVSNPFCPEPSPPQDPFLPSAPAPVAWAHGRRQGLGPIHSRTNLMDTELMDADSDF
The experiment in a line: Gli-luciferase based Hh reporter assay in C3H10T½ cells transfected with SMO constructs. In kind it is cell-based. As to conditions: 1 μM vismodegib, FIG. 13C. The method, then:
(§6) SMO mutants were generated in pRK5-SMO vectors as described (Dijkgraaf et al., 2011; Yauch et al., 2009) and were either utilized in Gli-luciferase reporter assays as described (Dijkgraaf et al., 2011) or cloned into lentiviral vectors for transduction of primary CGNP cultures. Proliferation was assayed using methyl-[3H]-thymidine incorporation (Kool et al., 2014).
(§7) C3H10T½ cells (ATCC) were seeded into six-well plates at 1.75×10E5 cells/well in DMEM High Glucose with 4 mM glutamine, 10 mM Hepes pH 7.2 and 10% FBS. After 16 h cells were transfected with 400 ng of expression construct, 400 ng of 9×-Gli-BS and 200 ng of pRL-TK per well using GeneJuice Transfection Reagent (Novagen). For the PTCH1 inhibition experiments, cells were transfected with 200 ng SMO expression construct and an additional 200 ng of DNA containing varying ratios of PTCH1 to empty vector. Six hours later, cells from one well were trypsinized and redistributed over four wells of a 12-well plate. After 16 hours the FBS content of the culture medium was reduced to 0.5% to induce formation of primary cilia, and small molecule Hh inhibitors were added at indicated concentrations. Firefly luciferase activity was determined 24 hours later with the Dual-Glo Luciferase Assay System (Promega) and read using a Wallac EnVision plate reader (Perkin Elmer). Values were divided by renilla luciferase activities to normalize for transfection efficiency. Individual experiments were carried out in duplicate or triplicate and repeated at least once. Dose response data were fit to a 4-parameter equation in GraphPad Prism: […]
(§8) The top and bottom (B) values were constrained to be […] for each sample. ‘H’ is the Hill Slope.
In general terms: Reporter assays use an easily measured gene product as a stand-in for the process of interest.

For assay [9], the target named is T2, SMO-D384N (Homo sapiens, UniProt Q99835, D384N).
T2 construct: expressed in transfected cells; host or cells: C3H10T½ cells (mouse)
T2 sequence (Q99835 28-787 D384N): as the sequence (Q99835 28-787 N219D) above, with D192N, D357N counted along it
Described as above. It is filed as cell-based. To be noted: 1 μM vismodegib, FIG. 13C. As for the experimental part:
as §6, §7, §8

The target of assay [10] is T3, SMO-S387N (Homo sapiens, UniProt Q99835, S387N).
T3 construct: expressed in transfected cells; host or cells: C3H10T½ cells (mouse)
T3 sequence (Q99835 28-787 S387N): as the sequence (Q99835 28-787 N219D) above, with D192N, S360N counted along it
The assay is described as above. It is filed as cell-based. To be noted: 1 μM vismodegib, FIG. 13C. The method, then: as §6, §7, §8

Assay [11] has as its system metastatic and locally advanced BCC. As to conditions: cited from earlier work.
The test system of assay [12] is SMO-D473 mutants (all aa except P). To be noted: cited from earlier work.
The target of assay [13] is T4, SMO-I408V (Homo sapiens, UniProt Q99835, I408V).
T4 construct: expressed in transfected cells; host or cells: HEK-293 cells
T4 sequence (Q99835 28-787 I408V): as the sequence (Q99835 28-787 N219D) above, with D192N, I381V counted along it
The experiment in a line: [3H]-vismodegib binding to HEK-293 cells transfected with SMO constructs. To be noted: 5 nM [3H]-vismodegib, cell surface levels similar to SMO-WT, FIG. 12B. The method, then: as §6
(§9) 2×10E6 HEK-293 cells were seeded into 10-cm plates and transfected 16 hours later with 3 μg of either empty vector or SMO expression construct using GeneJuice (Novagen). Cells were harvested 40 hours later in PBS with 1 mM EDTA and fixed in PBS with 4% PFA for 10 minutes at room temperature (RT), after which they were washed 3× in PBS with 1 mM EDTA and plated into 96-well plates at 100,000 cells per well. […] of MicroScint fluid (Perkin Elmer) was added per well and counts per minute were assessed using a PerkinElmer TopCount NXT. All samples were analyzed in triplicate.

Assay [14] deals with SMO-L515A (Homo sapiens, UniProt Q99835, L515A). As to conditions: L515A expressed, activating; 1 mM vismodegib; cited from earlier work.
Chain of SMO-L515A (Q99835 28-787 L515A): as the sequence (Q99835 28-787 N219D) above, with D192N, L488A counted along it
Assay [15] concerns medulloblastoma. To be noted: initial response; no durable response, relapse of the tumor; cited from earlier work.
Assay [16] addresses SMO-D473H (Homo sapiens, UniProt Q99835, D473H). As to conditions: cited from earlier work.
Assay [17] deals with activating SMO mutants. The experiment in a line: [3H]-vismodegib binding to HEK-293 cells transfected with SMO constructs. To be noted: all activating mutants tested; cell surface expression comparable to SMO-WT; FIG. 15C. Also on record: species or system human. The method, then:
as §6, §9

In assay [18] the target is T5, SMO-A459V (Homo sapiens, UniProt Q99835, A459V).
T5 construct: expressed in transfected cells; host or cells: C3H10T½ cells (mouse)
T5 sequence (Q99835 28-787 A459V): as the sequence (Q99835 28-787 N219D) above, with D192N, A432V counted along it
The experiment in a line: Gli-luciferase based Hh reporter assay in C3H10T½ cells transfected with SMO constructs. To be noted: GLI1 luciferase reporter, FIGS. 5A-5C. In kind it is cell-based, mouse. The method, then:
as §6
as §7, with “Elmer).” for “Elmer). Values were divided by renilla luciferase activities to normalize for transfection efficiency. Individual experiments were carried out in duplicate or triplicate and repeated at least once. Dose response data were fit to a 4-parameter equation in GraphPad Prism:”

Assay [19] has as its system SMO-S387N. To be noted: cited from earlier work.
In assay [20] the test system is SMO-L221R. As to conditions: cited from earlier work.
For assay [21], the system named is SMO-D384N. As to conditions: cited from earlier work.
The subject of assay [22] is SMO-N219D. To be noted: cited from earlier work.
In assay [23] the test system is PPT CGNPs expressing vismodegib-resistant SMO mutants. The assay can be described thus: methyl-[3H]-thymidine incorporation (proliferation) of virally transduced PPT CGNPs after removal of SHH. In kind it is cell-based, mice. As to conditions: 1 μM JQ1; FIG. 16B.
Description: as §1, §2, §3

Chain of SMO-D473H (Q99835 28-787 D473H): as the sequence (Q99835 28-787 N219D) above, with D192N, D446H counted along it

Broadly, the IC50 is the midpoint of a concentration-inhibition curve. Consider `CS(=O)(=O)c1ccc(C(=O)Nc2ccc(Cl)c(-c3ccccn3)c2)c(Cl)c1` [vismodegib], for which the half-inhibitory concentration (IC50) in assay [1] (Mus musculus, SMO-WT and Cre, FIG. 12D) was roughly 22 nM. Besides, the “vismodegib concentration at which proliferation was maximally inhibited” value in assay [1] (SMO-WT and Cre) is recorded as 100 nM. In addition, the “proliferation in the presence of vismodegib” value in [2] is “continuing to proliferate”; in assay [3] it was “continued to proliferate at near untreated levels”; in assay [5] it was “continued to proliferate”; in [6], “continued to proliferate”; in [7], “continued to proliferate”. In addition, the sensitivity to vismodegib result in [4] is “reduced sensitivity to”; in assay [12], “reduce sensitivity to”; in assay [18] it was “decreased sensitivity”. Besides, the “sensitivity to vismodegib compared to SMO-WT” value in assay [8] is “reduced sensitivity; also recorded: N219D reduced”; in assay [9] it was “reduced sensitivity; also recorded: D384N reduced”; in [10], “reduced sensitivity; also recorded: S387N reduced”. Moreover, the “clinical response of BCC patients treated with vismodegib” value in [11] (majority of BCC patients, complete and partial responses) is recorded as “clinical benefit”. The “advanced BCC patients that develop resistance to vismodegib” value in [11] (within the first year of treatment, preliminary estimate) is recorded as “up to 20%”. Moreover, in [13], the “binding of [3H]-labeled vismodegib” value is given as “impaired”. Moreover, the inhibition by vismodegib entry in [14] is listed as “activating, sensitive”. Moreover, the “response of a patient to treatment” value in [15] is “dramatic response”. The “drug binding in vitro” value in assay [16] is reported as “abrogate drug binding”. Further, the vismodegib binding result in assay [17] was “impaired”.
Take `Cc1c(C(=O)Nc2ccc(N3C[C@@H](C)O[C@@H](C)C3)nc2)cccc1-c1ccc(OC(F)(F)F)cc1` [LDE-225]: the “sensitivity to LDE-225” value in [19] is “S387N reduced”; in [20], “L221R reduced”; in assay [21] it was “D384N reduced”; in assay [22] it was “N219D reduced”.
As to `Cc1sc2c(c1C)C(c1ccc(Cl)cc1)=N[C@@H](CC(=O)OC(C)(C)C)c1nnc(C)n1-2` [JQ1], the “residual proliferation in SMO-WT” value in [1] (1 μM JQ1 compared with 1 μM vismodegib, FIG. 16B) is recorded as “less residual proliferation”. Also, the “proliferation of PPT CGNPs expressing vismodegib-resistant SMO mutants” value in assay [23] is “reduced proliferation”.
